The numbers were not newly measured in patent US12031126B2, “Methods and compositions for simultaneous editing of both strands of a target double-stranded nucleotide sequence” (The Broad Institute, Inc., priority 2020, dated 2024), which cites them from elsewhere.

Series [1] has as its target FKBP12 (Homo sapiens, UniProt P62942). The settings on record: cited from earlier work.
Series [2] has as its target FKBP12 F36V (Homo sapiens, UniProt P62942, F37V). As to conditions: cited from earlier work.

Chain of FKBP12 F36V (P62942 whole entry F37V): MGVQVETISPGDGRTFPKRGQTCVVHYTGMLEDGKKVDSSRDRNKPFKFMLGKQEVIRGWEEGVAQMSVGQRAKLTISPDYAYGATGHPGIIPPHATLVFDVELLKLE
Chain of FKBP12 (P62942 whole entry): as the sequence (P62942 whole entry F37V) above, with V37F counted along it

By Kd is commonly meant the free concentration of one partner at which half of the binding sites on the other are occupied at equilibrium, for simple one-to-one binding. Turning to `CC[C@H](C(=O)N1CCCC[C@H]1C(=O)O[C@H](CCc1ccc(OC)c(OC)c1)c1cccc(OCC(=O)O)c1)c1cc(OC)c(OC)c(OC)c1` [AP1867], the Kd in series [1] is 67 nM; in series [2], 0.094 nM.
